Measurements published in publication PMC6934184, “Selective DNA-PKcs inhibition extends the therapeutic index of localized radiotherapy and chemotherapy” (The Journal of Clinical Investigation, 2019).

Molecular target: T1, MAP3K2 (MEKK2) (Homo sapiens, UniProt Q9Y2U5)
T1 construct: purchased Thermo Fisher Scientific (Life Technologies) SelectScreen
Assay: SelectScreen LanthaScreen
Format: binding
Details: read-out: % displacement
Outline: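 NU5455 was profiled across the SelectScreen Broad panel of kinase activity and binding assays. Z'LYTE reactions such as CSF1R ran at apparent Km ATP, while the Adapta CAMK1 assay used ATP listed as 10. Values are given as percent.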

T1 sequence (Q9Y2U5 whole entry): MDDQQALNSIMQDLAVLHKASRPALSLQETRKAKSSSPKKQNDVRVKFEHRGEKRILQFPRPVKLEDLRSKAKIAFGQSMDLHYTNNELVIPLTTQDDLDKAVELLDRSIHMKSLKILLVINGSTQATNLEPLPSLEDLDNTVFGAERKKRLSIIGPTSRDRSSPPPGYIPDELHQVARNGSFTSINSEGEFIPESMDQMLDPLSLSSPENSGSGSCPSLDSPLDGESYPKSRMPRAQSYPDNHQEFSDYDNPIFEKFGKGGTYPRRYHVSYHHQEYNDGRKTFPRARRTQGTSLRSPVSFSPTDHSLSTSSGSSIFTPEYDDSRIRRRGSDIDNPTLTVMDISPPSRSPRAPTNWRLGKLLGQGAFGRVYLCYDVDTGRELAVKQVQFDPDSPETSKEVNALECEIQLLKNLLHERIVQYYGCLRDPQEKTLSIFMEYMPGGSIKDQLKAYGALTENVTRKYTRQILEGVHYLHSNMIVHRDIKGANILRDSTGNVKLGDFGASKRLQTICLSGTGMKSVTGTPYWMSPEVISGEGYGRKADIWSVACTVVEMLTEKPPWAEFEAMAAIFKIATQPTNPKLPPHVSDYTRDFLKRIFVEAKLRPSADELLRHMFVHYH

CN(C(=O)CN1CCOCC1)c1ccc2sc3c(-c4cccc5c(=O)cc(N6CC7CCC(C6)O7)oc45)cccc3c2c1 [NU5455]
inhibition at 1 µM: 0.1%
